`O=c1ccn2ncc(-c3cccs3)c2[nH]1` and `CC(=O)c1c(-c2cccs2)[nH]c(-c2ccncc2)c1C` fall in the same range of melting point: 231 to 232 °C for the first, 231 to 232 °C for the second.

First: COc1ccc2c(c1)C(=O)c1c-2nc2ccccc2c1Cl
Second: CC(=O)c1ccc(OC(=O)c2c3ccccc3nc3ccccc23)cc1
The melting point of the first is higher: 216 to 218 °C for the first, 214 to 215 °C for the second.

First: C1=C(c2cccc3ccccc23)CCN(Cc2ccccc2)C1
Second: N#CC1=CCC(c2ccccc2)c2ccccc21 (stereo unspecified)
The melting point of the first is higher: 72 to 74 °C for the first, 66 to 67 °C for the second.

First: NCc1cn2ccccc2n1
Second: O=c1c(Br)cc(Cl)cn1Cc1ccccc1
The melting point of the first is lower: 91 to 93 °C for the first, 108 to 110 °C for the second.

First: c1ccc(-c2cc3ccccc3o2)nc1
Second: O=C1C=CC(O)(c2cnc3ccccc3c2)C=C1
The melting point of the first is lower: 86 to 87 °C for the first, 183 to 184 °C for the second.

First: Cc1[nH]c(Cl)c(C#N)c1SC(F)(Cl)Cl
Second: N#Cc1cc(Cl)cc(Cl)c1Cl
The melting point of the first is higher: 187 °C for the first, 77 to 78 °C for the second.

Compared with `CS(=O)(=O)Nc1ccc2c(c1)C(=O)CC1(CCN(CCc3ccc(N)c(N)c3)CC1)O2`, `CN(c1cccc2cc(C3=NCC4(CCN(CC(N)=O)CC4)S3)[nH]c12)S(=O)(=O)c1cccs1` is higher in melting point: 109 to 112 °C for the first, 226 °C for the second.

First: CC(O)(CCC#N)c1ccc(-c2ccc(F)cc2)cc1 (stereo unspecified)
Second: CC(C)(C)OC(=O)N1C(=O)O[C@@H](c2ccc(F)cc2)[C@H]1Cc1ccc(C(F)(F)F)cc1 (racemic)
The melting point of the first is lower: 118 to 120 °C for the first, 155 to 156 °C for the second.

First: CCOC(=O)c1cc(-c2ccccc2)n(-c2cccc(C(N)=O)c2)c1C
Second: CC(C)NCC(O)COc1cc(-c2ccccc2)nc2ccccc12 (racemic)
The melting point of the first is higher: 238 to 239 °C for the first, 109 to 111 °C for the second.

First: CCCCCCCCCCOc1cc(OCCCOc2ccc(OCc3ccccc3)cc2)cc(C(=O)O)c1
Second: CCCCCCCCCCCCCCCCCCOCC(O)COC(c1ccccc1)(c1ccccc1)c1ccccc1 (stereo unspecified)
The melting point of the first is higher: 107 to 109 °C for the first, 53 to 55 °C for the second.

First: O=CNNc1ccc(NC(=S)NCc2ccccc2)cc1
Second: COc1ccc(-c2cc3ccccc3[nH]2)cc1NC(=S)Nc1cccc(CC(=O)O)c1
The melting point of the first is lower: 152 to 154 °C for the first, 174 to 175 °C for the second.

First: OCCCc1nc(-c2ccc(Cl)cc2)co1
Second: O=C(O)c1ccc(-c2csc(-c3ccc(Cl)cc3)n2)cc1
The melting point of the first is lower: 41 to 42 °C for the first, 284 to 285 °C for the second.

First: O=C(O)[C@H](Cc1ccc(C(F)(F)F)cc1)[C@@H](O)c1ccc(Cl)nc1 (racemic)
Second: CC(C)n1nc(-c2ccc(O)cc2O)c2cccc(C(F)(F)F)c21
The melting point of the first is higher: 145 to 146 °C for the first, 61 to 63 °C for the second.

First: Cc1cc2c(s1)c(=O)c(C(=O)O)cn2C
Second: COc1cc2c(=O)c(S(C)=O)cn(C)c2cc1F (stereo unspecified)
The melting point of the first is higher: 305 to 315 °C for the first, 263 to 264 °C for the second.

First: CCc1nc2cnc3cc(Br)cnc3c2n1CC(C)(C)O
Second: C[C@H](CS(C)(=O)=O)NC(=O)c1c[nH]c2ncc(-c3nn(C)c4cc(Cl)ccc34)nc12
The melting point of the first is lower: 207 to 208 °C for the first, 287 to 290 °C for the second.

Compared with `COc1ccc2c(C(=O)c3ccc(OC4CCCC4N4CCCCC4)cc3)c(-c3ccc(OCCN4CCCC4)cc3)sc2c1` (stereo unspecified), `COc1ccc2nccc(CCC[C@@H]3CCN(CCCc4ccccc4F)C[C@@H]3C(=O)O)c2c1` is higher in melting point: 68 to 72 °C for the first, 194 °C for the second.

First: CCCN(C(C)C)S(=O)(=O)NC(=O)c1cc(-n2c(=O)cc(C(F)(F)F)n(C)c2=S)c(F)cc1Cl
Second: Cc1c(NCCO)c(F)cc2c(=O)c(C(=O)O)cn(-c3cc(N)c(F)cc3F)c12
The melting point of the first is lower: 74 to 75 °C for the first, 166 to 168 °C for the second.

First: CN1CCN(c2cc(Cl)cc3c2c(=O)n(Cc2ccncc2)c(=O)n3Cc2ccccc2)CC1
Second: CN1CCN(C2=Nc3ccc(F)cc3Nc3sc4cc(Br)ccc4c32)CC1
The melting point of the first is lower: 94 to 100 °C for the first, 219 to 221 °C for the second.

First: O=C(Cc1cccs1)NCc1cccc2c1C(=O)N(C1CCC(=O)NC1=O)C2=O (stereo unspecified)
Second: CC(C)(C)OC(=O)CN1CC(c2ccco2)SCC(N2C(=O)c3ccccc3C2=O)C1=O (stereo unspecified)
The melting point of the first is higher: 171 to 173 °C for the first, 158 to 161 °C for the second.

Compared with `C#CCn1c2ccc(Br)cc2c2cc(Br)ccc21`, `Cc1ccc(S(=O)(=O)c2ccc3[nH]cc(CCN)c3c2)cc1` is lower in melting point: 193 to 194 °C for the first, 137 to 140 °C for the second.

First: C=CCOC(=O)C1=C2c3ccccc3CC[C@@H]2[C@@H]2[C@@H]([C@@H](C)O)C(=O)N12
Second: CC(C)N(CCN1C(=O)C(=O)c2ccccc21)C(C)C
The melting point of the first is higher: 133 to 134 °C for the first, 60 to 61 °C for the second.

Compared with `O=c1cc(Sc2ccccc2)c(-c2nc[nH]n2)nn1-c1ccccc1`, `O=CN1CCN=C1CC(c1ccccc1)c1ccccc1` is lower in melting point: 245 to 250 °C for the first, 105 to 107 °C for the second.

First: COC(=O)CCCc1cc2cc(Cl)ccc2n1S(=O)(=O)c1ccccc1
Second: CC(=O)SCC(Cc1ccccc1)C(=O)Nc1cc(C(=O)O)ccc1Cl (stereo unspecified)
The melting point of the first is lower: 109 to 112 °C for the first, 204 to 206 °C for the second.

First: CC(C)(N)CNc1ccc(C2=NNC(=O)CC2)cc1
Second: O=C1CCC(c2ccncc2)=NN1
The melting point of the first is higher: 190 to 192 °C for the first, 185 to 187 °C for the second.

Compared with `CCOC=Nc1c2oc3ccccc3c2nn1C`, `CC(C)(C)Nc1c[nH]c2ccccc12` is higher in melting point: 120 to 122 °C for the first, 137 to 142 °C for the second.

Compared with `CCC(CC)c1ccc(N(Cc2ccc(-c3csc(COc4cncc(C(=O)O)c4)n3)cc2)C(C)C)cc1`, `CCCCc1oc2ccccc2c1-c1ncc(-c2ccc3cc(OC(Cc4ccccc4)C(=O)OC)ccc3c2)o1` (stereo unspecified) is lower in melting point: 202 °C for the first, 122 to 124 °C for the second.

First: CC(C)(C)c1cc(C=C2OC(NC(=N)N)=NC2=O)cc(C(C)(C)C)c1O
Second: CC(C)(C)OC(=O)C(C)(C)N1COC(CF)=C(c2ccccc2)C1=O
The melting point of the first is higher: 258 °C for the first, 80.5 to 82.5 °C for the second.

First: Cc1cc2c3c(ccc2cc1C#N)OC(=O)C3(C)C
Second: O=C1OC(=O)c2cc3cccc([N+](=O)[O-])c3c3cccc1c23
The melting point of the first is lower: 215 to 217 °C for the first, 246 °C for the second.

First: N#Cc1ccc(N(Cc2ccc(O)cc2)n2cnnc2)cc1
Second: CN(Cc1ccc(N)cc1)C1CCN(c2ccc(N)cc2)CC1
The melting point of the first is higher: 228 to 230 °C for the first, 123 °C for the second.

First: COc1cccc(-c2nc3nccnc3[nH]2)c1
Second: COC(=O)c1ccc(-c2nc(-c3ccc(Oc4ccccc4)cc3)no2)cc1
The melting point of the first is higher: 289 °C for the first, 112 to 113 °C for the second.

First: O=C(NCCCCN1CCC(c2c[nH]c3ccccc23)CC1)c1sc(-c2ccc(C(F)(F)F)cc2)nc1CO
Second: CCCCC(=O)c1c(-c2ccc3c(Br)c(OCC(=O)O)ccc3c2)sc2ccccc12
The melting point of the first is higher: 235 °C for the first, 164 to 165 °C for the second.

First: COc1cc2c(c(OC)c1OC)CCN(c1nc(N)c3cc(OC)c(OC)c(OC)c3n1)C2
Second: COc1cc2c(cc1OC)S(=O)CCC(C(=O)N1CCN(C(=O)c3cc(OC)c(OC)c(OC)c3)CC1)=C2 (stereo unspecified)
The melting point of the first is higher: 193 to 195 °C for the first, 138 °C for the second.

First: O=C(O)c1ncn2c1[C@@H]1CCN1C(=O)c1c(Br)cccc1-2
Second: CC1CCc2c(N3CCCC3)ccc3c(=O)c(C(=O)O)cn1c23 (stereo unspecified)
The melting point of the first is higher: 178 to 180 °C for the first, 170 to 174 °C for the second.

Compared with `CC(=O)OCC1=C(C(=O)O)N2C(=O)C(NC(=O)Cc3ccc(CN=[N+]=[N-])cc3)C2SC1` (stereo unspecified), `CC(Cc1c[nH]c2ccccc12)(NC(=O)OC1C2CC3CC(C2)CC1C3)C(=O)NC(CC(=O)O)Cc1ccc(N)cc1` (stereo unspecified) is lower in melting point: 135 to 136 °C for the first, 115 to 120 °C for the second.

First: O=C1Nc2ccc(F)cc2Nc2sc3ccccc3c21
Second: O=C(OCc1ccc[nH]c1=O)c1ccc(F)cc1
The melting point of the first is higher: 249 to 250 °C for the first, 170 to 173 °C for the second.

First: O=c1[nH]c2cc(Br)c(F)c([N+](=O)[O-])c2[nH]c1=O
Second: O=C1C2=C(CCCC2)C(=O)N1c1ccc(O)cc1F
The melting point of the first is higher: 316 to 321 °C for the first, 132 to 136 °C for the second.

First: CCn1ncc2c(NC3CCc4ccccc43)c3ccccc3nc21 (stereo unspecified)
Second: COc1ccc(C(=O)N2c3ccccc3C(N3CCc4ccccc4C3)CC2C)cc1OC (stereo unspecified)
The melting point of the first is higher: 233 to 235 °C for the first, 128 to 129 °C for the second.

First: COc1ccc(Cn2c(=O)n(C3OC(CO)C(O)C3O)c3nc(N)[nH]c(=O)c32)cc1 (stereo unspecified)
Second: CCCc1c(OC(C(=O)OCC)c2ccc(OC)cc2)ccc(C(C)=O)c1O (stereo unspecified)
The melting point of the first is higher: > 230 °C for the first, 87 to 89 °C for the second.

First: OC1CSC(Oc2cncc(-c3ccnc(Cl)c3)c2)C(O)C1O (stereo unspecified)
Second: O=[N+]([O-])c1ccccc1OCCN1CCN(c2cc(Cl)nnc2Cl)CC1
The melting point of the first is higher: 204 °C for the first, 125 to 126 °C for the second.

First: COC(=O)Nc1ccccc1C=Cc1ccccc1Cl
Second: O=S1N=C(NCCCN(Cc2ccccc2)c2ccccn2)C(NCc2ccccn2)=N1 (stereo unspecified)
The melting point of the first is lower: 135 to 137 °C for the first, 139 to 140 °C for the second.

First: CCCC(=O)CCCCCC(=O)N[C@@H](C)C(=O)OC
Second: CC(=O)OCC1C(C(=O)O)C1(C)C (stereo unspecified)
The melting point of the first is lower: 51 to 54 °C for the first, 78 to 79 °C for the second.

First: NC(=O)c1ccc2[nH]c(=O)oc2c1
Second: O=C(CC1CSCCC1=O)c1ccc(Cl)cc1 (stereo unspecified)
The melting point of the first is higher: 296 °C for the first, 78 to 81 °C for the second.

Compared with `CC[C@H]1[C@H](O)CC(=O)N1c1ccc(C#N)c(C(F)(F)F)c1`, `CC(C)(C)NC(=O)c1nn(-c2cc(F)cc(F)c2)c2c1C1CCC2C1` (stereo unspecified) is lower in melting point: 111 to 112 °C for the first, 103 to 107 °C for the second.

First: Cc1cn(C)c2cc(C(C)C)c(Oc3cnc(N)nc3N)cc12
Second: CCCCCc1c(C(C)C)nc(C(C)C)c(CO)c1-c1cccc(C)c1
The melting point of the first is higher: 185 °C for the first, 88 to 90 °C for the second.

First: CC(C)(C)OC(=O)N1CC(O)CN1C(=O)OC(C)(C)C
Second: CC(C)(C)OC(=O)N1Cc2cscc2C1
The melting point of the first is higher: 100 to 102 °C for the first, 36 to 38 °C for the second.

Compared with `C=CCc1cc2c(c(CC=C)c1OC1CCCCO1)CCC(=O)N2` (stereo unspecified), `CCCN(CC1CC1)c1nc(C)nc2c1c(C)c(C)n2-c1c(C)cc(C)c2nsnc12` is higher in melting point: 119 to 120 °C for the first, 136 °C for the second.

First: C#CCn1c(I)cc(C(O)CC)c(C)c1=O (stereo unspecified)
Second: CN(C)CCNc1ccc2c3c(nn2C)-c2ccncc2C(=O)c13
The melting point of the first is lower: 126 to 127 °C for the first, 212 to 216 °C for the second.

First: NS(=O)(=O)c1cc(CC(=O)C=CC(=O)O)ccc1Cl
Second: CS(=O)(=O)c1ccc(-c2cnn(-c3ccc(F)cc3)c(=O)c2-c2ccc(Cl)cc2)cc1
The melting point of the first is higher: 217 to 218 °C for the first, 195 to 197 °C for the second.

First: OC1CCc2cc3ccccc3n2C1 (stereo unspecified)
Second: O=C(NCCCCOc1ccc(-n2ccnc2)cc1)Nc1ccc(Br)cc1
The melting point of the first is lower: 99 to 100 °C for the first, 157 to 159 °C for the second.

First: CC(C)C(C)NC1=NS(=O)(=O)c2cc([N+](=O)[O-])ccc2N1 (stereo unspecified)
Second: O=C(c1ccc(F)cc1)c1ccc(C#Cc2ccc(F)cc2)cc1
The melting point of the first is higher: 308 to 311 °C for the first, 190 to 191 °C for the second.

`CCOC(=O)c1c(C(F)(F)F)nc(C(F)(F)F)c(C(=O)OCC)c1Br` showed a melting point of 56 to 61 °C.

— a melting point compilation (Tetko et al.; mined from patent text by program, amines drawn as free bases though some values may be those of a salt)
